Results as given in ChEMBL document CHEMBL3045145, “Synthesis, characterization and their anticonvulsant, anti-inflammatory studies of some novel chromeno oxadiazoles” (2013).

Key:
Format in all cases: functional
Rattus norvegicus [1] = assay: Anti-inflammatory activity in Rattus norvegicus Wistar (rat) assessed as inhibition of carrageenan-induced paw edema at 20 mg/kg, ip administered 30 min post carrageenan-challenge measured after 3 hr relative to control; details: route intraperitoneal
Mus musculus [2] = assay: Anticonvulsant activity in Mus musculus albino (mouse) assessed as time of onset of PTZ-induced clonic convulsion at 25 mg/kg, po administered 30 min prior to PTZ-challenge (reference value: 61 secs)
Mus musculus [3] = assay: Anticonvulsant activity in Mus musculus albino (mouse) assessed as protection against PTZ-induced clonic convulsion at 25 mg/kg, po administered 30 min prior to PTZ-challenge relative to control
Rattus norvegicus [4] = assay: Anti-inflammatory activity in Rattus norvegicus Wistar (rat) assessed as inhibition of carrageenan-induced paw edema at 10 mg/kg, ip administered 30 min post carrageenan-challenge measured after 3 hr relative to control; details: route intraperitoneal

Row | Structure (SMILES) | inhibition in vivo at 20 mg/kg (Rattus norvegicus [1]) [%] | Time (Mus musculus [2]) [s] | Activity (Mus musculus [3]) [%] | inhibition in vivo at 10 mg/kg (Rattus norvegicus [4]) [%]
1 | O=[N+]([O-])c1cccc(/C=N/C2Oc3ccccc3CC2c2noc(-c3cccc([N+](=O)[O-])c3)n2)c1 (stereo not given) | 40.9 | 60 | 100 | –
2 | Fc1ccc(Br)cc1/C=N/C1Oc2ccccc2CC1c1noc(-c2cc(Br)ccc2F)n1 (stereo not given) | – | 128 | 66.6 | –
3 | COc1cc(/C=N/C2Oc3ccccc3CC2c2noc(-c3ccc(O)c(OC)c3)n2)ccc1O (stereo not given) | 42.5 | 80 | 66.6 | –
4 | Brc1ccc(/C=N/C2Oc3ccccc3CC2c2noc(-c3ccc(Br)cc3)n2)cc1 (stereo not given) | – | 104 | 100 | –
5 | C(=N\C1Oc2ccccc2CC1c1noc(-c2nccs2)n1)/c1nccs1 (stereo not given) | 17.3 | 201 | 100 | –
6 | Fc1ccc(/C=N/C2Oc3ccccc3CC2c2noc(-c3ccc(F)c(Oc4ccccc4)c3)n2)cc1Oc1ccccc1 (stereo not given) | 37 | – | – | –
7 | Clc1ccccc1/C=N/C1Oc2ccccc2CC1c1noc(-c2ccccc2Cl)n1 (stereo not given) | 37 | 226 | 100 | –
8 | Clc1ccc(/C=N/C2Oc3ccccc3CC2c2noc(-c3ccc(Cl)cc3)n2)cc1 (stereo not given) | 26.8 | 218 | 100 | –
9 | Oc1ccccc1/C=N/C1Oc2ccccc2CC1c1noc(-c2ccccc2O)n1 (stereo not given) | 27.5 | 325 | 100 | –
10 | COc1ccc(/C=N/C2Oc3ccccc3CC2c2noc(-c3ccc(OC)c(OC)c3)n2)cc1OC (stereo not given) | 31.5 | 158 | 100 | –
11 | Fc1ccc(/C=N/C2Oc3ccccc3CC2c2noc(-c3ccc(F)cc3)n2)cc1 (stereo not given) | – | 101 | 100 | –
12 | C(/C=C/c1ccccc1)=N/C1Oc2ccccc2CC1c1noc(/C=C/c2ccccc2)n1 (stereo not given) | 23.6 | – | – | –
13 | O=C(O)Cc1ccccc1Nc1c(Cl)cccc1Cl [DICLOFENAC] | – | – | – | 80.4
